Assay [1] has as its target T1, guinea pig lung membranes (Cavia porcellus, UniProt P30547).
T1 construct: The trachea and lung were removed and homogenized in ice-cold buffer; from tissue; host or cells: guinea pig (male Hartley strain) trachea and lung, crude membrane fraction
The assay can be described thus: ^3 H-Substance P binding to guinea pig lung membranes. As to conditions: at the concentration of 1 μg/ml; read-out: inhibition rate of ^3 H-Substance P binding to guinea pig lung membranes. Here is the method: ^3 H-Substance P Binding to Guinea Pig Lung Membranes Test Method
^3 H-Substance P Binding to Guinea Pig Lung Membranes
(a) Crude lung membrane preparation
Male Hartly strain guinea pigs were stunned and bled. The trachea and lung were removed and homogenized in ice-cold buffer (0.25M sucrose, 50 mM Tris-HCl pH 7.5, 0.1 mM EDTA) by using Polytoron (Kinematica). The homogenate was centrifuged (1000×g, 10 minutes) to remove tissue clumps and the supernatant was centrifuges (35000×g, 20 minutes) to yield pellet. The pellet was resuspended in buffer (5 mM Tris-HCl pH 7.5), homogenized with a teflon homogenizer and centrifuged (35000×g, 20 minutes) to yield pellet which was referred to as crude membrane fractions. The obtained pellet was resuspended in buffer (50 mM Tris-HCl pH 7.5) and stored at -70° C. until use.
(b) ^3 H-Substance P binding to preparation membrane
Frozen crude membrane fractions were thawed and resuspended in Medium 1 (50 mM Tris-HCl pH 7.5, 1 mM MnCl2, 0.02% BSA, 2 μg/ml chymostatin, 4 μg/ml leupeptin, 40 μg/ml bacitracin, 10 μM phosphoramidon). ^3 H-Substance P (1 nM) was incubated with 100 μl of the membrane preparations with or without test compounds in Medium 1 at 25° C. for 30 minutes in a final volume of 500 μl. At the end of the incubation period, 5 ml ice-cold 50 mM Tris-HCl buffer was added to each tube and its content was quickly filtered over a Wahtman GF/B glass filter (pretreated with 0.1% polyethylene imine for 3 hours prior to use) under aspiration. Each of the filters was then washed four times with 5 ml of ice-cold buffer (50 mM Tris-HCl pH 7.5). […] All data presented are specific binding defined as that displaceable by 5 μM unlabeled Substance P.

The target of another assay is T2, h-NK1 receptors (Homo sapiens, UniProt P25103).
T2 construct: expressed in transfected cells; host or cells: CHO cells
The assay can be described thus: ^125 I-BH-Substance P binding to h-NK1 receptors. As to conditions: at the concentration of 0.1 μg/ml; CHO cell membranes expressing h-NK1 receptors; read-out: inhibition rate of ^125 I-BH-Substance P binding to h-NK1 receptors. Here is the method:
^125 I-BH-Substance P Binding to h-NK1 Receptors Test Method
^125 I-BH-Substance P Binding to h-NK1 Receptors
(a) Crude CHO cell membrane preparation
CHO cells permanently expressing h-NK1 receptors were harvested and homogenized with a Dounce homogenizer at 4° C. in a buffer (0.25M sucrose, 25 mM Tris-HCl pH 7.4, 10 mM MgCl2, 1 mM EDTA, 5 μg/ml p-APMSF). The homogenate was centrifuged (500×g, 10 minutes), and the pellet was resuspended in the same buffer, homogenized, and centrifuged. The two supernatants were combined and centrifuged (100,000×g, 1 hour). The crude cell membranes thus isolated were resuspended in buffer (25 mM Tris-HCl pH 7.4, 10 mM MgCl2, 1 mM EDTA, 5 μg/ml p-APMSF) and stored at -80° C. until use.
(b) ^125 I-BH-Substance P binding to preparation membrane Cell membranes (6 μg/ml) were incubated with ^125 I-BH-Substance P (0.1 nM) with or without test compounds in 0.25 ml of Medium 2(50 mM Tris-HCl pH 7.4, 5 mM MnCl2, 20 μg/ml chymostatin, 40 μg/ml bacitracin, 4 μg/ml leupeptin, 5 μg/ml p-APMSF, 200 μg/ml BSA) at 22° C. for 90 minutes. At the end of the incubation period, the content was quickly filtered over a Wahtman GF/C glass filter (pretreated with 0.1% polyethylene imine for 3 hours prior to use) under aspiration. Each of the filters was then washed four times with 5 ml of buffer (50 mM Tris-HCl pH 7.4, 5 mM MnCl2). The radioactivity was counted by using Auto Gamma counter (Packerd RIASTAR 5420A). All data presented are specific binding defined as that displaceable by 3 μM unlabeled Substance P.

As usually defined, the inhibition is the relative decrease from the control value, in per cent.

Where a name gives a salt, the structure may show the parent alone.

T1 sequence (P30547 whole entry): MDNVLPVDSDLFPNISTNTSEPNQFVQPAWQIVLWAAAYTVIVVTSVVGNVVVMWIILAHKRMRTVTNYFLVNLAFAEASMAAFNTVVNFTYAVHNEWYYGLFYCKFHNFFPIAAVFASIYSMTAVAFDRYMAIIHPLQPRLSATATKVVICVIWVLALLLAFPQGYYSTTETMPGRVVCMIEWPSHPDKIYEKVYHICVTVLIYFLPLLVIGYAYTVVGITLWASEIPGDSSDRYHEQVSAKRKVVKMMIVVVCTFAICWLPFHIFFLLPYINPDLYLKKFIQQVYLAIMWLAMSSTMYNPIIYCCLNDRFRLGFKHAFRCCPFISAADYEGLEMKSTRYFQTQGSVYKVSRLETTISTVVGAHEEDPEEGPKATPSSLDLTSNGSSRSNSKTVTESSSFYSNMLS
T2 sequence (P25103 whole entry): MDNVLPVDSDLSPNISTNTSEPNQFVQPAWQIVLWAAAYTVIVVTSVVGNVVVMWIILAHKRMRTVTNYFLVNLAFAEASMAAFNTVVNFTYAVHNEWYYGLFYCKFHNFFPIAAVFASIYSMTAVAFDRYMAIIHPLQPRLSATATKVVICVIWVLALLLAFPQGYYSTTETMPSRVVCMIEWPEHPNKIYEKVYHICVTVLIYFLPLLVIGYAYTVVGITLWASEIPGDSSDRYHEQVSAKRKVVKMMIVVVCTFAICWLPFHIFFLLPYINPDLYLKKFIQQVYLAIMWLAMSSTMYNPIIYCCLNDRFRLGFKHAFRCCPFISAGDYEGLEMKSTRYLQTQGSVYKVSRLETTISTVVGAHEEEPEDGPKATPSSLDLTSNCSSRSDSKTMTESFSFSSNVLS

For the compound `O=C(c1cc(C(F)(F)F)cc(C(F)(F)F)c1)N1CCNC[C@H]1Cc1ccccc1` [Example 7-7], the inhibition at 1 µg/mL in assay [1] was greater than 90%. Same read-out and setting: the value for `O=C(/C=C/c1ccccc1)N1CCN(C(=O)c2cc(C(F)(F)F)cc(C(F)(F)F)c2)[C@H](Cc2c[nH]c3ccccc23)C1` [Example 17-1, (2R)-1-[3,5-Bis(trifluoromethyl)benzoyl]-2-(1H-indol-3-yl-methyl)-4-(trans-cinnamoyl)piperazine] was greater than 90%; that for `O=C(/C=C/c1ccc(F)cc1)N1CCN(C(=O)c2cc(C(F)(F)F)cc(C(F)(F)F)c2)[C@H](Cc2c[nH]c3ccccc23)C1` [Example 17-2, (2R)-1-[3,5-Bis(trifluoromethyl)benzoyl]-2-(1H-indol-3-yl-methyl)-4-(4-fluoro-trans-cinnamoyl)piperazine] was greater than 90%; that for `O=C(CCc1ccccc1)N1CCN(C(=O)c2cc(C(F)(F)F)cc(C(F)(F)F)c2)[C@H](Cc2ccccc2)C1` [Example 17-4, (2R)-2-Benzyl-1-[3,5-bis(trifluoromethyl)benzoyl]-4-(3-phenylpropionyl)piperazine] was greater than 90%. Still for that read-out and setting: the figure for `O=C(CCCc1ccccc1)N1CCN(C(=O)c2cc(C(F)(F)F)cc(C(F)(F)F)c2)[C@H](Cc2ccccc2)C1` [Example 17-5, (2R)-2-Benzyl-1-[3,5-bis(trifluoromethyl)benzoyl]-4-(4-phenylbutyryl)piperazine] is greater than 90%. As for `O=C(CCc1c[nH]c2ccccc12)N1CCN(C(=O)c2cc(C(F)(F)F)cc(C(F)(F)F)c2)[C@H](Cc2ccccc2)C1` [Example 17-10, (2R)-2-Benzyl-1-[3,5-bis(trifluoromethyl)benzoyl]-4-[3-(1H-indol-3-yl)propionyl]piperazine], the inhibition at 1 µg/mL in assay [1] was greater than 90%.

In the case of `O=C(CCCc1c[nH]c2ccccc12)N1CCN(C(=O)c2cc(C(F)(F)F)cc(C(F)(F)F)c2)[C@H](Cc2ccccc2)C1` [Example 17-11, (2R)-2-Benzyl-1-[3,5-bis(trifluoromethyl)benzoyl]-4-[4-(1H-indol-3-yl)butyryl]piperazine], the inhibition at 1 µg/mL in assay [1] is greater than 90%. Same read-out and setting: the figure for `O=C(/C=C/c1ccc([N+](=O)[O-])cc1)N1CCN(C(=O)c2cc(C(F)(F)F)cc(C(F)(F)F)c2)[C@H](Cc2ccccc2)C1` [Example 17-24, (2R)-2-Benzyl-1-[3,5-bis(trifluoromethyl)benzoyl]-4-(4-nitro-trans-cinnamoyl)piperazine] is greater than 90%. As to `O=C(/C=C/C1CCCCC1)N1CCN(C(=O)c2cc(C(F)(F)F)cc(C(F)(F)F)c2)[C@H](Cc2c[nH]c3ccccc23)C1` [Example 17-50, (2R)-1-[3,5-Bis(trifluoromethyl)benzoyl]-4-[(3-cyclo-hexyl)-trans-acryloyl]-2-(1H-indol-3-yl-methyl)-piperazine], the inhibition at 0.1 µg/mL on h-NK1 receptors was greater than 90%.

With `O=C(C1CC1)N1CCN(C(=O)c2cc(C(F)(F)F)cc(C(F)(F)F)c2)[C@H](Cc2c[nH]c3ccccc23)C1` [Example 17-56, (2R)-1-[3,5-Bis(trifluoromethyl)benzoyl]-4-(cyclo-propylcarbonyl)-2-(1H-indol-3-yl-methyl)piperazine], the inhibition at 0.1 µg/mL at h-NK1 receptors is greater than 90%. On the same count and under the same terms, the figure for `O=C(/C=C/c1cccnc1)N1CCN(C(=O)c2cc(C(F)(F)F)cc(C(F)(F)F)c2)[C@H](Cc2c[nH]c3ccccc23)C1` [Example 17-57, (2R)-1-[3,5-Bis(trifluoromethyl)benzoyl]-2-(1H-indol-3-yl-methyl)-4-[3-(3-pyridyl)-trans-acryloyl]-piperazine] is greater than 90%; for `Cc1ccc(C[C@@H]2CN(C(=O)/C=C/C3CCCCC3)CCN2C(=O)c2cc(C(F)(F)F)cc(C(F)(F)F)c2)cc1C` [Example 17-60, (2R)-1-[3,5-Bis(trifluoromethyl)benzoyl]-2-(3,4-dimethylbenzyl)-4-(3-cyclohexyl-trans-acryloyl)piperazine] it is greater than 90%. Turning to `CN(C)C(=O)N1CCN(C(=O)c2cc(C(F)(F)F)cc(C(F)(F)F)c2)[C@H](Cc2c[nH]c3ccccc23)C1` [Example 19-1, (2R)-1-[3,5-Bis(trifluoromethyl)benzoyl]-2-(1H-indol-3-yl-methyl) -4-(N,N-dimethylaminocarbonyl)piperazine], the inhibition at 1 µg/mL in assay [1] is greater than 90%. Take `CN(C)C(=O)N1CCN(C(=O)c2cc(C(F)(F)F)cc(C(F)(F)F)c2)[C@H](Cc2ccccc2)C1` [Example 19-4, (2R)-2-Benzyl-1-[3,5-bis(trifluoromethyl)benzoyl]-4-(N,N-dimethylcarbamoyl)piperazine]: in assay [1], the inhibition at 1 µg/mL was greater than 90%. Regarding `CC(=O)N1CCN(C(=O)c2cc(C(F)(F)F)cc(C(F)(F)F)c2)[C@H](Cc2ccc(C)c(C)c2)C1` [Example 19-10, (2R)-4-Acetyl-1-[3,5-bis(trifluoromethyl)benzoyl]-2-(3,4-dimethylbenzyl)piperazine], in assay [1], the inhibition at 1 µg/mL is greater than 90%. `CS(=O)(=O)N1CCN(C(=O)c2cc(C(F)(F)F)cc(C(F)(F)F)c2)[C@H](Cc2c[nH]c3ccccc23)C1` [Example 19-13, (2R)-1-[3,5-Bis(trifluoromethyl)benzoyl]-2-(1H-indol-3-yl-methyl)-4-mesylpiperazine]: the inhibition at 0.1 µg/mL on h-NK1 receptors is greater than 90%. Regarding `CC(=O)Nc1nc(/C=C/C(=O)N2CCN(C(=O)c3cc(C(F)(F)F)cc(C(F)(F)F)c3)[C@H](Cc3c[nH]c4ccccc34)C2)cs1` [Example 21-3, (2R)-4-[3-[2-(Acetylamino)thiazol-4-yl]-trans-acryloyl]-1-[3,5-bis(trifluoromethyl)benzoyl]-2-(1H-indol-3-yl-methyl)piperazine], the inhibition at 0.1 µg/mL on h-NK1 receptors was greater than 90%. In the case of `CN(C)CC(=O)N1CCN(C(=O)c2cc(C(F)(F)F)cc(C(F)(F)F)c2)[C@H](Cc2c[nH]c3ccccc23)C1` [Example 24-4, (2R)-1-[3,5-Bis(trifluoromethyl)benzoyl]-2-(1H-indol-3-yl-methyl)-4-[2-(N,N-dimethylamino)acetyl]-piperazine hydrochloride], the inhibition at 1 µg/mL in assay [1] is greater than 90%.

Turning to `Cc1ccc(C[C@@H]2CNCCN2C(=O)c2cc(C(F)(F)F)cc(C(F)(F)F)c2)cc1C` [Example 24-8, (2R)-1-[3,5-Bis(trifluoromethyl)benzoyl]-2-(3,4-dimethylbenzyl) piperazine hydrochloride], the inhibition at 1 µg/mL in assay [1] is greater than 90%. With `NC(=O)CN1CCN(C(=O)c2cc(C(F)(F)F)cc(C(F)(F)F)c2)[C@H](Cc2c[nH]c3ccccc23)C1` [Example 25-2, (^2 R)-1-[3,5-Bis(trifluoromethyl)benzoyl]-2-(1H-indol-3-yl-methyl)-4-(carbamoylmethyl)piperazine], the inhibition at 0.1 µg/mL at h-NK1 receptors was greater than 90%. Same read-out and setting: the figure for `CNC(=O)CN1CCN(C(=O)c2cc(C(F)(F)F)cc(C(F)(F)F)c2)[C@H](Cc2c[nH]c3ccccc23)C1` [Example 26, (2R)-1-[3,5-bis (trifluoromethyl)benzoyl]-2-(1H-indol-3-yl-methyl)-4-(N-methylcarbamoylmethyl)piperazine hydrochloride] is greater than 90%.

With `CN1CCN(NC(=O)CN2CCN(C(=O)c3cc(C(F)(F)F)cc(C(F)(F)F)c3)[C@H](Cc3c[nH]c4ccccc34)C2)CC1` [Example 77, (2R)-1-[3,5-bis(trifluoromethyl)benzoyl]-2-(1H-indol-3-ylmethyl)-4-[N-(4-methyl-1-piperazinyl)carbamoylmethyl]piperazine], the inhibition at 0.1 µg/mL at h-NK1 receptors is greater than 90%.

On to `CC(C)(C)C(=O)Nc1nc(CN2CCN(C(=O)c3cc(C(F)(F)F)cc(C(F)(F)F)c3)[C@H](Cc3c[nH]c4ccccc34)C2)cs1` [Example 79-4], for which the inhibition at 0.1 µg/mL at h-NK1 receptors was greater than 90%.

Source of the values: patent US5883098A, “Piperazine derivatives” (Fujisawa Pharmaceutical Co., Ltd., priority 1993, dated 1999).
